Laboratory results taken from ChEMBL document CHEMBL1201862, “PubChem BioAssay data set” (2004).
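Tested at 5 concentrations; 48 h exposure; 96-well plates; endpoints linearly interpolated, else capped at highest concentration. At the GI50, growth is halved.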 The source made the active and inactive calls. No stated cut-off is given here; in the data, active = GI50 up to about 1.1 µM and inactive = higher.

Columns and labels:
Assay in all cases: inhibition of tumour cell growth, NCI panel, 48 h
DMS-273 = tested on: DMS-273
KM12 = tested on: KM12
HCT-116 = tested on: HCT-116
TK-10 = tested on: TK-10
LOX IMVI = tested on: LOX IMVI
HL-60 = tested on: HL-60
SF-268 = tested on: SF-268
COLO 205 = tested on: COLO 205
IGROV-1 = tested on: IGROV-1
M19-MEL = tested on: M19-MEL
SNB-78 = tested on: SNB-78
XF498 = tested on: XF498
LXFL 529 = tested on: LXFL 529
SF-539 = tested on: SF-539
A498 = tested on: A498
EKVX = tested on: EKVX
ACHN = tested on: ACHN
U-251 = tested on: U-251
OVCAR-5 = tested on: OVCAR-5
UACC-62 = tested on: UACC-62
SNB-19 = tested on: SNB-19
HOP-18 = tested on: HOP-18
M14 = tested on: M14
OVCAR-3 = tested on: OVCAR-3
UACC-257 = tested on: UACC-257
HCT-15 = tested on: HCT-15
KM-20L2 = tested on: KM-20L2
NCI-H460 = tested on: NCI-H460
NCI-H23 = tested on: NCI-H23
SW-620 = tested on: SW-620
NCI-H522 = tested on: NCI-H522
UO-31 = tested on: UO-31
HOP-92 = tested on: HOP-92
CAKI-1 = tested on: CAKI-1
SF-295 = tested on: SF-295
RXF 393 = tested on: RXF 393
SK-MEL-28 = tested on: SK-MEL-28
SK-MEL-5 = tested on: SK-MEL-5
DLD-1 = tested on: DLD-1
HT-29 = tested on: HT-29
CCRF-CEM = tested on: CCRF-CEM
786-0 = tested on: 786-0
HOP-62 = tested on: HOP-62
MOLT-4 = tested on: MOLT-4
NCI-H226 = tested on: NCI-H226
RPMI-8226 = tested on: RPMI-8226
OVCAR-4 = tested on: OVCAR-4
SK-OV-3 = tested on: SK-OV-3
K562 = tested on: K562
A549 = tested on: A549
SN12C = tested on: SN12C
DMS-114 = tested on: DMS-114
OVCAR-8 = tested on: OVCAR-8
HCC 2998 = tested on: HCC 2998
SK-MEL-2 = tested on: SK-MEL-2
SR = tested on: SR
SNB-75 = tested on: SNB-75
Malme-3M = tested on: Malme-3M
RXF 631 = tested on: RXF 631

Measured: GI50

O=C(OC[C@H]1O[C@@H](OC(=O)c2cc(O)c(O)c(O)c2)[C@H](OC(=O)c2cc(O)c(O)c(O)c2)[C@@H](OC(=O)c2cc(O)c(O)c(O)c2)[C@@H]1OC(=O)c1cc(O)c(O)c(O)c1)c1cc(O)c(O)c(O)c1 [PENTAGALLOYL GLUCOSE]
inactive: DMS-273 1.46 µM | KM12 2.34 µM | HCT-116 5.11 µM | TK-10 4.88 µM | LOX IMVI 1.72 µM | HL-60 3.65 µM | SF-268 4.57 µM | COLO 205 4.98 µM | IGROV-1 5.73 µM | M19-MEL 9.14 µM | SNB-78 9.51 µM | XF498 4.85 µM | LXFL 529 11.4 µM | SF-539 2.49 µM | A498 6.32 µM | EKVX 6.04 µM | ACHN 3.89 µM | U-251 5.33 µM | OVCAR-5 7.94 µM | UACC-62 2.26 µM | SNB-19 4.88 µM | HOP-18 36.6 µM | M14 7.23 µM | OVCAR-3 3.78 µM | UACC-257 14.9 µM | KM-20L2 4.27 µM | NCI-H460 3.27 µM | NCI-H23 2.16 µM | SW-620 6 µM | NCI-H522 3.46 µM | UO-31 5.79 µM | HOP-92 5.58 µM | CAKI-1 7.67 µM | SF-295 3.92 µM | RXF 393 7.73 µM | SK-MEL-28 15.3 µM | SK-MEL-5 11.3 µM | DLD-1 7 µM | HT-29 6.92 µM | CCRF-CEM 3.33 µM | 786-0 4.99 µM | HOP-62 3.89 µM | MOLT-4 3 µM | NCI-H226 1.49 µM | RPMI-8226 2.76 µM | OVCAR-4 8.91 µM | SK-OV-3 6.17 µM | K562 47.2 µM | A549 3.54 µM | SN12C 11.9 µM | DMS-114 4.21 µM | OVCAR-8 5.22 µM | HCC 2998 3.21 µM | SK-MEL-2 10.7 µM | SR 4.13 µM
5.21 µM: HCT-15

COC(=O)[C@@]12OC[C@]34C([C@@H](O)C1O)[C@@]1(C)CC(=O)C(OC(=O)/C=C(/c5ccccc5)C(F)(F)F)=C(C)C1C[C@H]3OC(=O)[C@H](O)[C@H]42 (stereo partly drawn)
active: A498 0.52 µM
inactive: DMS-273 3.44 µM | KM12 14.4 µM | HCT-116 8.63 µM | TK-10 10.1 µM | HL-60 1.16 µM | SF-268 11.2 µM | COLO 205 11.2 µM | IGROV-1 3.9 µM | M19-MEL 5.08 µM | SNB-78 11.2 µM | XF498 9.82 µM | LXFL 529 7.35 µM | SF-539 3.79 µM | EKVX 38.6 µM | ACHN 13.9 µM | U-251 6.68 µM | OVCAR-5 21.8 µM | UACC-62 2.36 µM | SNB-19 4.71 µM | HOP-18 30.1 µM | SNB-75 4.01 µM | M14 8.77 µM | UACC-257 8.73 µM | KM-20L2 8.61 µM | NCI-H460 2.43 µM | NCI-H23 4.56 µM | NCI-H522 6.35 µM | UO-31 35.7 µM | HOP-92 5.86 µM | CAKI-1 20.1 µM | SF-295 7.93 µM | RXF 393 16.9 µM | SK-MEL-28 5.31 µM | SK-MEL-5 4.83 µM | DLD-1 7.41 µM | HT-29 6.76 µM | CCRF-CEM 8.71 µM | 786-0 9.04 µM | HOP-62 12.4 µM | MOLT-4 2.14 µM | NCI-H226 6.5 µM | RPMI-8226 2.06 µM | OVCAR-4 17.7 µM | SK-OV-3 7.89 µM | K562 9.4 µM | Malme-3M 7.91 µM | A549 16.5 µM | SN12C 7.93 µM | DMS-114 4.27 µM | OVCAR-8 12.1 µM | HCC 2998 3.44 µM | SK-MEL-2 7.96 µM | SR 3.29 µM
23.8 µM: HCT-15

COC(=O)N/N=C(\C)c1c(O)cc(C)oc1=O
inactive: KM12 52.6 µM | HCT-116 98.4 µM | TK-10 33.2 µM | LOX IMVI 7.85 µM | HL-60 45.2 µM | SF-268 22.1 µM | IGROV-1 > 100 µM | SNB-78 > 100 µM | RXF 631 > 100 µM | LXFL 529 10.8 µM | SF-539 14.7 µM | A498 > 100 µM | EKVX > 100 µM | ACHN 25.8 µM | U-251 28.8 µM | UACC-62 5.62 µM | SNB-19 > 100 µM | SNB-75 > 100 µM | M14 35.2 µM | UACC-257 > 100 µM | KM-20L2 22.1 µM | NCI-H460 37.8 µM | NCI-H23 > 100 µM | SW-620 25.9 µM | UO-31 40.1 µM | HOP-92 > 100 µM | SF-295 29.4 µM | SK-MEL-28 50.8 µM | SK-MEL-5 50.8 µM | DLD-1 30.1 µM | HT-29 65.3 µM | CCRF-CEM 46 µM | 786-0 56.2 µM | HOP-62 36.2 µM | MOLT-4 18.5 µM | NCI-H226 > 100 µM | OVCAR-4 > 100 µM | SK-OV-3 > 100 µM | K562 17.5 µM | Malme-3M > 100 µM | A549 29 µM | SN12C 78.5 µM | OVCAR-8 59.3 µM | HCC 2998 43.9 µM | SK-MEL-2 41.4 µM | SR 37.2 µM
17 µM: HCT-15
